ChEMBL document CHEMBL1201862, “PubChem BioAssay data set” (2004)
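Cultured in 96-well plates, cells were exposed to test compound for 48 hours across five concentrations. Here, GI50 denotes the concentration required for 50% inhibition of growth.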 Active and inactive are the calls of the source. Rule as the data show it: active = GI50 up to about 1.1 µM and inactive = higher.

Assays:
Test in all cases: NCI tumour cell line growth inhibition, 48 h
U-251 = system: U-251
HL-60 = system: HL-60
MOLT-4 = system: MOLT-4
K562 = system: K562
SK-MEL-2 = system: SK-MEL-2
COLO 205 = system: COLO 205
CAKI-1 = system: CAKI-1
Malme-3M = system: Malme-3M
NCI-H23 = system: NCI-H23
786-0 = system: 786-0
M14 = system: M14
SNB-19 = system: SNB-19
HOP-62 = system: HOP-62
SN12C = system: SN12C
NCI-H522 = system: NCI-H522
SK-MEL-28 = system: SK-MEL-28

Measured: GI50

O=C1c2c(c(-c3ccccc3)c(-c3ccccc3)c(-c3ccccc3)c2-c2ccccc2)C(=O)N1c1cccc(Br)c1
inactive: U-251 > 100 µM | HL-60 > 100 µM | MOLT-4 > 100 µM | K562 > 100 µM | SK-MEL-2 > 100 µM | COLO 205 > 100 µM | CAKI-1 > 100 µM | Malme-3M > 100 µM | NCI-H23 > 100 µM | 786-0 > 100 µM | M14 58.3 µM | SNB-19 > 100 µM | HOP-62 > 100 µM | SN12C > 100 µM | NCI-H522 > 100 µM

O=C(NC(=O)c1cn(CCNCCO)c(=O)[nH]c1=O)OCc1ccccc1
inactive: U-251 > 100 µM | HL-60 > 100 µM | MOLT-4 > 100 µM | K562 > 100 µM | COLO 205 > 100 µM | CAKI-1 > 100 µM | Malme-3M > 100 µM | NCI-H23 > 100 µM | 786-0 > 100 µM | M14 > 100 µM | SK-MEL-28 > 100 µM | HOP-62 > 100 µM | SN12C > 100 µM | NCI-H522 > 100 µM

COc1ccc(C2S/C(=C\c3ccc(OC)cc3OC)C(=O)N2NC(=O)Cc2ccccc2)cc1 (stereo not given)
inactive: U-251 > 100 µM | HL-60 97.9 µM | MOLT-4 > 100 µM | K562 98.9 µM | SK-MEL-2 > 100 µM | COLO 205 > 100 µM | CAKI-1 > 100 µM | Malme-3M > 100 µM | NCI-H23 > 100 µM | 786-0 > 100 µM | M14 > 100 µM | HOP-62 > 100 µM | SN12C > 100 µM | NCI-H522 > 100 µM

CC(C)(c1ccccc1)c1ccc(Oc2ccc3c(c2)-c2nc-3nc3[nH]c(nc4nc(nc5[nH]c(n2)c2ccc(Oc6ccc(C(C)(C)c7ccccc7)cc6)cc52)-c2cc(Oc5ccc(C(C)(C)c6ccccc6)cc5)ccc2-4)c2ccc(Oc4ccc(C(C)(C)c5ccccc5)cc4)cc32)cc1
inactive: U-251 71.3 µM | HL-60 > 100 µM | MOLT-4 > 100 µM | K562 > 100 µM | SK-MEL-2 > 100 µM | COLO 205 > 100 µM | Malme-3M > 100 µM | NCI-H23 > 100 µM | 786-0 > 100 µM | M14 > 100 µM | SK-MEL-28 > 100 µM | SNB-19 92 µM | HOP-62 64.6 µM | NCI-H522 86.9 µM

CN(C)/N=C(/c1nc2ccc([N+](=O)[O-])cc2nc1O)C(O)c1ccco1 (stereo not given)
inactive: U-251 > 100 µM | HL-60 > 100 µM | MOLT-4 > 100 µM | K562 > 100 µM | COLO 205 > 100 µM | CAKI-1 48.1 µM | Malme-3M > 100 µM | NCI-H23 > 100 µM | 786-0 > 100 µM | M14 > 100 µM | SK-MEL-28 > 100 µM | SNB-19 > 100 µM | HOP-62 72.1 µM | SN12C > 100 µM | NCI-H522 8.57 µM

Cc1nc2c(n1CCN(C)C)C(=O)c1ccccc1C2=O
inactive: U-251 14.5 µM | HL-60 5.3 µM | MOLT-4 19.7 µM | K562 18.8 µM | SK-MEL-2 12.2 µM | COLO 205 4.47 µM | Malme-3M 2.84 µM | NCI-H23 12.1 µM | 786-0 28 µM | M14 11.8 µM | SK-MEL-28 53.6 µM | SNB-19 27.7 µM | HOP-62 26.9 µM | SN12C 16.6 µM | NCI-H522 5.38 µM

COc1c(CC(C)=O)ccc2c1C(=O)c1ccc(C=O)c(OC(C)=O)c1C2=O
inactive: U-251 13.9 µM | HL-60 5.06 µM | MOLT-4 11.4 µM | K562 11.6 µM | SK-MEL-2 15.2 µM | COLO 205 16.1 µM | CAKI-1 17.8 µM | Malme-3M 12.7 µM | NCI-H23 > 10 µM | 786-0 6.32 µM | M14 12 µM | SK-MEL-28 11 µM | SNB-19 19.9 µM | SN12C 12.9 µM | NCI-H522 2.15 µM

CC(=O)N1c2ccccc2N(C(C)=O)C1c1ccc(C2N(C(C)=O)c3ccccc3N2C(C)=O)[nH]1
inactive: U-251 > 100 µM | HL-60 > 100 µM | MOLT-4 > 100 µM | K562 > 100 µM | COLO 205 > 100 µM | CAKI-1 > 100 µM | Malme-3M > 100 µM | NCI-H23 > 100 µM | 786-0 > 100 µM | M14 > 100 µM | SNB-19 > 100 µM | HOP-62 > 100 µM | SN12C > 100 µM | NCI-H522 > 100 µM

O=C1c2nn(-c3ccccc3)nc2C(c2ccccc2)N1c1ccccc1 (stereo not given)
inactive: U-251 95.3 µM | MOLT-4 > 100 µM | K562 > 100 µM | SK-MEL-2 > 100 µM | COLO 205 > 100 µM | CAKI-1 > 100 µM | Malme-3M > 100 µM | NCI-H23 > 100 µM | 786-0 33.3 µM | M14 > 100 µM | SK-MEL-28 > 100 µM | SNB-19 > 100 µM | HOP-62 28.3 µM | SN12C > 100 µM | NCI-H522 > 100 µM

Clc1ccc(OCc2nnc3n2N=C(c2ccc(Br)cc2)CS3)cc1
inactive: U-251 30.7 µM | HL-60 > 100 µM | MOLT-4 > 100 µM | K562 > 100 µM | SK-MEL-2 23.4 µM | CAKI-1 > 10 µM | Malme-3M 28 µM | NCI-H23 40.9 µM | 786-0 16.4 µM | M14 > 10 µM | SK-MEL-28 28 µM | SNB-19 23.7 µM | HOP-62 9.82 µM | SN12C 52.8 µM | NCI-H522 7.1 µM

CC1CCC(C(C)(C)c2ccccc2)C(=O)C1 (stereo not given)
inactive: U-251 > 100 µM | HL-60 25.6 µM | MOLT-4 > 100 µM | K562 > 100 µM | SK-MEL-2 > 100 µM | COLO 205 > 100 µM | CAKI-1 74.8 µM | Malme-3M > 100 µM | 786-0 > 100 µM | M14 > 100 µM | SNB-19 > 100 µM | HOP-62 > 100 µM | SN12C > 100 µM

Cc1[nH]c2ccccc2c1C1CC(=O)NC1=O (stereo not given)
inactive: U-251 > 100 µM | HL-60 > 100 µM | MOLT-4 > 100 µM | K562 > 100 µM | SK-MEL-2 > 100 µM | CAKI-1 > 100 µM | Malme-3M > 100 µM | NCI-H23 > 100 µM | 786-0 > 100 µM | M14 > 100 µM | SK-MEL-28 > 100 µM | HOP-62 > 100 µM

C=CCO[C@H]1CC[C@@]2(C)C(CC[C@]3(C)C2CC=C2[C@@H]4[C@@H](C)C(C)CC[C@]4(C(=O)O)CCC23C)C1(C)C (stereo not given in full)
inactive: U-251 16.1 µM | HL-60 7.01 µM | K562 14.3 µM | COLO 205 16 µM | CAKI-1 17.9 µM | Malme-3M 19.5 µM | NCI-H23 14.9 µM | 786-0 15.7 µM | M14 17.5 µM | SK-MEL-28 15.6 µM | SNB-19 17.1 µM | HOP-62 22.1 µM | SN12C 13.6 µM | NCI-H522 13.2 µM
